Values of other authors as cited in patent US20170333338A1, “SUSTAINED AND REVERSIBLE ORAL DRUG DELIVERY SYSTEMS” (The Children's Medical Center Corporation, priority 2014, published 2017).

Q: With `NCCC(O)(P(=O)(O)O)P(=O)(O)O` [Pamidronate] as the molecule, how does the “highest pKa of the phosphate groups” value read?
A: 10.18
